Experimental data taken from the NIST ThermoML archive (doi:10.1021/je500594z).
Numbers after ± are expanded uncertainties.

Assay: xn = mol fraction of the nth substance listed
Details: 101 kPa, Liquid; for viscosity: Falling or rolling sphere viscometry; for speed of sound: Sing-around technique in a fixed-path interferometer; for mass density: Vibrating tube method

CCCCCC[n+]1ccn(C)c1.O=S(=O)([N-]S(=O)(=O)C(F)(F)F)C(F)(F)F + CCO
Details	mass density [kg/m3]	speed of sound [m/s]	viscosity [mPa·s]
278.15 K, x1 = 0.047	933.23 ± 0.12	1208.7 ± 0.63	2.69 ± 0.02
278.15 K, x1 = 0.097	1026.67 ± 0.14	1211.4 ± 0.63	4.32 ± 0.03
278.15 K, x1 = 0.198	1146.24 ± 0.21	1222.7 ± 0.64	9.53 ± 0.08
278.15 K, x1 = 0.292	1215.04 ± 0.21	1233.9 ± 0.64	16.27 ± 0.13
278.15 K, x1 = 0.39	1263.14 ± 0.22	1242.8 ± 0.65	25.73 ± 0.2
278.15 K, x1 = 0.47	1292.55 ± 0.21	1250.3 ± 0.65	35.73 ± 0.29
278.15 K, x1 = 0.596	1327.21 ± 0.19	1258.1 ± 0.65	56.91 ± 0.26
278.15 K, x1 = 0.694	1347.34 ± 0.18	1262.6 ± 0.65	79.17 ± 1.2
278.15 K, x1 = 0.799	1364.86 ± 0.18	1267.2 ± 0.66	112.54 ± 3.1
278.15 K, x1 = 0.903	1379.2 ± 0.18	1271.2 ± 0.66	154.54 ± 5.9
278.15 K, x1 = 1	1390.3 ± 0.19	1274.6 ± 0.66	211.31 ± 10
298.15 K, x1 = 0.047	915.22 ± 0.13	1145.7 ± 0.61	1.73 ± 0.01
298.15 K, x1 = 0.097	1008.17 ± 0.14	1152.5 ± 0.61	2.61 ± 0.02
298.15 K, x1 = 0.198	1127.27 ± 0.21	1168.4 ± 0.62	4.98 ± 0.04
298.15 K, x1 = 0.292	1195.96 ± 0.21	1181.9 ± 0.62	7.97 ± 0.06
298.15 K, x1 = 0.39	1244.05 ± 0.22	1192.3 ± 0.63	12.1 ± 0.1
298.15 K, x1 = 0.47	1273.5 ± 0.2	1200.6 ± 0.63	15.94 ± 0.13
298.15 K, x1 = 0.596	1308.27 ± 0.19	1209.2 ± 0.63	23.72 ± 0.19
298.15 K, x1 = 0.694	1328.48 ± 0.17	1214.1 ± 0.64	31.3 ± 0.25
298.15 K, x1 = 0.799	1346.07 ± 0.17	1218.9 ± 0.64	41.44 ± 0.33
298.15 K, x1 = 0.903	1360.48 ± 0.18	1223.1 ± 0.64	53.7 ± 0.17
298.15 K, x1 = 1	1371.64 ± 0.18	1226.8 ± 0.64	70.46 ± 0.82
318.15 K, x1 = 0.047	896.92 ± 0.13	1085 ± 0.59	1.18 ± 0.01
318.15 K, x1 = 0.097	989.44 ± 0.14	1095.9 ± 0.59	1.71 ± 0.01
318.15 K, x1 = 0.198	1108.22 ± 0.21	1116.3 ± 0.6	3.05 ± 0.02
318.15 K, x1 = 0.292	1176.89 ± 0.21	1131.9 ± 0.61	4.64 ± 0.04
318.15 K, x1 = 0.39	1225.05 ± 0.21	1143.8 ± 0.61	6.7 ± 0.05
318.15 K, x1 = 0.47	1254.61 ± 0.2	1153 ± 0.61	8.61 ± 0.07
318.15 K, x1 = 0.596	1289.55 ± 0.18	1162.6 ± 0.62	12.33 ± 0.1
318.15 K, x1 = 0.694	1309.88 ± 0.17	1168 ± 0.62	15.72 ± 0.12
318.15 K, x1 = 0.799	1327.59 ± 0.17	1173.4 ± 0.62	20.13 ± 0.16
318.15 K, x1 = 0.903	1342.08 ± 0.17	1178 ± 0.62	24.94 ± 0.2
318.15 K, x1 = 1	1353.31 ± 0.17	1182 ± 0.62	30.22 ± 0.24
338.15 K, x1 = 0.047	878.04 ± 0.14	1025.6 ± 0.56	–
338.15 K, x1 = 0.097	970.28 ± 0.14	1040.6 ± 0.57	–
338.15 K, x1 = 0.198	1088.96 ± 0.21	1065.5 ± 0.58	–
338.15 K, x1 = 0.292	1157.75 ± 0.2	1083.5 ± 0.59	–
338.15 K, x1 = 0.39	1206.1 ± 0.21	1097 ± 0.59	–
338.15 K, x1 = 0.47	1235.83 ± 0.19	1107.2 ± 0.6	–
338.15 K, x1 = 0.596	1271.01 ± 0.17	1118 ± 0.6	–
338.15 K, x1 = 0.694	1291.5 ± 0.16	1124 ± 0.6	–
338.15 K, x1 = 0.799	1309.35 ± 0.16	1130 ± 0.6	–
338.15 K, x1 = 0.903	1323.94 ± 0.16	1135.2 ± 0.6	–
338.15 K, x1 = 1	1335.25 ± 0.17	1139.3 ± 0.61	–

CCCC[n+]1ccn(C)c1.O=S(=O)([N-]S(=O)(=O)C(F)(F)F)C(F)(F)F + CCO
Details	mass density [kg/m3]	speed of sound [m/s]	viscosity [mPa·s]
278.15 K, x1 = 0.049	939.65 ± 0.13	1204.6 ± 0.63	2.64 ± 0.02
278.15 K, x1 = 0.096	1032.42 ± 0.15	1204.5 ± 0.63	3.8 ± 0.03
278.15 K, x1 = 0.194	1162.65 ± 0.23	1213.9 ± 0.64	7.4 ± 0.06
278.15 K, x1 = 0.288	1241.69 ± 0.24	1225.4 ± 0.64	12.59 ± 0.1
278.15 K, x1 = 0.39	1300.98 ± 0.25	1237.1 ± 0.64	18.82 ± 0.15
278.15 K, x1 = 0.484	1340.75 ± 0.25	1245.5 ± 0.65	26.93 ± 0.21
278.15 K, x1 = 0.591	1375.63 ± 0.22	1253.5 ± 0.65	38 ± 0.3
278.15 K, x1 = 0.696	1401.82 ± 0.2	1260 ± 0.65	52.96 ± 0.15
278.15 K, x1 = 0.818	1426.17 ± 0.21	1266.3 ± 0.65	77.99 ± 1.2
278.15 K, x1 = 0.9	1439.65 ± 0.21	1269.8 ± 0.66	99.43 ± 2.3
278.15 K, x1 = 1	1453.69 ± 0.21	1273.8 ± 0.66	139.82 ± 4.8
298.15 K, x1 = 0.049	921.49 ± 0.13	1142.4 ± 0.61	1.71 ± 0.01
298.15 K, x1 = 0.096	1013.65 ± 0.15	1146.4 ± 0.61	2.35 ± 0.02
298.15 K, x1 = 0.194	1143.26 ± 0.23	1160.7 ± 0.62	4.13 ± 0.03
298.15 K, x1 = 0.288	1222.07 ± 0.24	1174.6 ± 0.62	6.64 ± 0.05
298.15 K, x1 = 0.39	1281.27 ± 0.25	1188 ± 0.63	9.5 ± 0.08
298.15 K, x1 = 0.484	1321.04 ± 0.24	1197.4 ± 0.63	12.92 ± 0.1
298.15 K, x1 = 0.591	1355.98 ± 0.21	1206.2 ± 0.63	17.3 ± 0.14
298.15 K, x1 = 0.696	1382.23 ± 0.2	1213.2 ± 0.63	22.86 ± 0.18
298.15 K, x1 = 0.818	1406.65 ± 0.2	1219.8 ± 0.64	31.21 ± 0.24
298.15 K, x1 = 0.9	1420.19 ± 0.2	1223.6 ± 0.64	38.05 ± 0.3
298.15 K, x1 = 1	1434.23 ± 0.21	1227.5 ± 0.64	51.22 ± 0.12
318.15 K, x1 = 0.049	903.02 ± 0.14	1082 ± 0.59	1.18 ± 0.01
318.15 K, x1 = 0.096	994.64 ± 0.15	1090 ± 0.59	1.57 ± 0.01
318.15 K, x1 = 0.194	1123.77 ± 0.23	1109.1 ± 0.6	2.61 ± 0.02
318.15 K, x1 = 0.288	1202.45 ± 0.23	1125.5 ± 0.6	3.95 ± 0.03
318.15 K, x1 = 0.39	1261.65 ± 0.24	1140.5 ± 0.61	5.62 ± 0.04
318.15 K, x1 = 0.484	1301.51 ± 0.24	1150.8 ± 0.61	7.52 ± 0.06
318.15 K, x1 = 0.591	1336.54 ± 0.21	1160.7 ± 0.62	9.76 ± 0.08
318.15 K, x1 = 0.696	1362.91 ± 0.19	1168.3 ± 0.62	12.42 ± 0.1
318.15 K, x1 = 0.818	1387.44 ± 0.19	1175.6 ± 0.62	16.16 ± 0.13
318.15 K, x1 = 0.9	1401.04 ± 0.19	1179.7 ± 0.62	19.03 ± 0.15
318.15 K, x1 = 1	1415.13 ± 0.2	1184 ± 0.62	24.36 ± 0.19
338.15 K, x1 = 0.049	883.95 ± 0.14	1022.5 ± 0.56	0.85 ± 0.01
338.15 K, x1 = 0.096	975.18 ± 0.15	1034.5 ± 0.57	1.12 ± 0.01
338.15 K, x1 = 0.194	1104.04 ± 0.23	1058.5 ± 0.58	1.79 ± 0.02
338.15 K, x1 = 0.288	1182.73 ± 0.23	1077.4 ± 0.59	2.71 ± 0.02
338.15 K, x1 = 0.39	1242.06 ± 0.24	1094.2 ± 0.59	3.7 ± 0.03
338.15 K, x1 = 0.484	1282.08 ± 0.23	1105.8 ± 0.6	4.86 ± 0.04
338.15 K, x1 = 0.591	1317.28 ± 0.2	1116.5 ± 0.6	6.26 ± 0.05
338.15 K, x1 = 0.696	1343.8 ± 0.18	1124.9 ± 0.6	7.79 ± 0.06
338.15 K, x1 = 0.818	1368.47 ± 0.18	1133 ± 0.6	9.83 ± 0.08
338.15 K, x1 = 0.9	1382.15 ± 0.19	1137.6 ± 0.61	11.28 ± 0.09
338.15 K, x1 = 1	1396.35 ± 0.19	1142.7 ± 0.61	13.94 ± 0.11
